Measurements taken from publication PMC6336804, “Identification of selective inhibitors of Helicobacter pylori IMPDH as a targeted therapy for the infection” (Scientific Reports, 2019).
Where two headings read alike, the source gives them in different places.

Assays:
[1] = target: T1, HpIMPDH (Helicobacter pylori, UniProt P56088); test: HpIMPDH enzyme inhibition assay (NADH fluorescence); assay type: biochemical
T1 construct: His tag; made in house; host or cells: E. coli Rosetta(DE3) pLysS, pET-28a(+)
T1 sequence (P56088 whole entry): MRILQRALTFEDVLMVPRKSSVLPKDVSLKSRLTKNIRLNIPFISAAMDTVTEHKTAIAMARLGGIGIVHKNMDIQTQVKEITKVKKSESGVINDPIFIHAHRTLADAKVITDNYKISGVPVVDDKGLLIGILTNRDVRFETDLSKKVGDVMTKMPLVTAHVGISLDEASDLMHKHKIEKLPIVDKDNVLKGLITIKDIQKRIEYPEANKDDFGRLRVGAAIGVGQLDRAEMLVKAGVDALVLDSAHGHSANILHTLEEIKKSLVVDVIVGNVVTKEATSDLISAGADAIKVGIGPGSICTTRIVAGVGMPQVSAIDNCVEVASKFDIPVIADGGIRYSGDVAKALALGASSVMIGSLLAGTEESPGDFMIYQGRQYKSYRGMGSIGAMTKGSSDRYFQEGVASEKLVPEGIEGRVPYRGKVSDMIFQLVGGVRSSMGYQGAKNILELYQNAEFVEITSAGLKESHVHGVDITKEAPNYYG
Procedure: To calculate the IC50 values, the initial velocity of the reaction is plotted against concentrations of the small molecule inhibitor, and the data is fitted with the Hill equation.
Similar to enzyme kinetic studies, these were also determined by monitoring NADH concentration through the fluorescence measurement. In the presence of IMPDH inhibitor, decreased catalytic activity of the enzyme reduces the formation of NADH. […] The production of NADH was monitored by measuring fluorescence at 440 nm when excited at 340 nm using PerkinElmer EnVision Multilabel Reader (Perkin Elmer, Inc., MA, USA) at 37 °C. In these assays C91 was used as a positive control.
IC50 values for all compounds were calculated with the help of software GraphPad Prism. The equation applied was:2 Y=Bottom+(Top−Bottom)/1+10^((LogIC50−X)∗HillSlope)

[2] = target: T1, HpIMPDH; test: Mechanism of HpIMPDH inhibition, kinetic studies with varying IMP or NAD+ (Lineweaver-Burk); assay type: biochemical; settings: for Conclusion: type of inhibition versus IMP / Conclusion: type of inhibition versus NAD+: Table S4
From the text: There are three important mechanisms of enzyme inhibition, viz. competitive, non-competitive and uncompetitive inhibition. […] The initial velocity data were plotted using Lineweaver-Burk equation using GraphPad Prism.
The data is plotted using the Lineweaver-Burk equation.

[3] = tested on: PaIMPDH; settings: PaIMPDH ref 7; cited from earlier work
[4] = tested on: AgIMPDH; design: method as in ref 5 (a number printed in a supplementary file, which may have a reference list of its own: not looked up in the article's list); settings: AgIMPDH ref 5; cited from earlier work
[5] = tested on: BbIMPDH; design: method as in ref 10 (a number printed in a supplementary file, which may have a reference list of its own: not looked up in the article's list); settings: BbIMPDH ref 10; cited from earlier work
[6] = tested on: SpIMPDH; design: method as in ref 9 (a number printed in a supplementary file, which may have a reference list of its own: not looked up in the article's list); settings: SpIMPDH ref 9; cited from earlier work
[7] = tested on: HsIMPDH-I; design: method as in ref 4 (a number printed in a supplementary file, which may have a reference list of its own: not looked up in the article's list); settings: HsIMPDH-I ref 4; cited from earlier work
[8] = target: T1, HpIMPDH; design: method as in ref 3 (a number printed in a supplementary file, which may have a reference list of its own: not looked up in the article's list); settings: previously reported HpIMPDH data ref 3; cited from earlier work
[9] = tested on: CpIMPDH; design: method as in ref 8 (a number printed in a supplementary file, which may have a reference list of its own: not looked up in the article's list); settings: CpIMPDH ref 8; cited from earlier work
[10] = tested on: TfIMPDH; settings: TfIMPDH ref 6; cited from earlier work
[11] = tested on: HsIMPDH-II; design: method as in ref 4 (a number printed in a supplementary file, which may have a reference list of its own: not looked up in the article's list); settings: HsIMPDH-II ref 4; cited from earlier work
[12] = target: T1, HpIMPDH; assay type: biochemical; settings: 100 nM enzyme
From the text: Before carrying out enzymatic assays, it is important to determine the enzyme activity.
The initial velocity data was fitted using Michaelis–Menten equation (1) with the help of GraphPad Prism to calculate enzyme kinetic parameters.1 V=Vmax[S]/KM+[S] where, V is velocity, Vmax is maximum velocity, [S] is substrate concentration, KM is Michaelis–Menten constant.

[13] = IC50, HpIMPDH inhibition, 100 nM HpIMPDH, NAD+ 300 µM, IMP 250 µM

## O=C(Cn1c(-c2ccccn2)nc2ccccc21)Nc1ccc2ccccc2c1 [Compound 1, reference compound]
[1]; [13]
  IC50: 0.155 ± 0.082 µM
[2]
  Mechanism of HpIMPDH inhibition against both IMP and NAD+: uncompetitive
  Conclusion: type of inhibition versus IMP: Un-competitive inhibition
  Conclusion: type of inhibition versus NAD+: Un-competitive inhibition

## O=C(Cn1cc(C(=O)Nc2cccnc2)c2ccccc21)Nc1ccc(Br)cc1 [Compound 2]
[1]; HpIMPDH
  IC50 value (in words): micromolar range
[1]; [13]
  IC50: 1.89 ± 0.42 µM
[1]; IC50, inhibition profile of indole based compounds, Table S3
  IC50: 1.88 µM
[2]
  Mechanism of HpIMPDH inhibition against both IMP and NAD+: noncompetitive inhibition
  Conclusion: type of inhibition versus IMP: Non-competitive inhibition
  Conclusion: type of inhibition versus NAD+: Non-competitive inhibition

## NC(=O)c1ccc[n+]([C@@H]2O[C@H](COP(=O)([O-])OP(=O)(O)OC[C@H]3O[C@@H](n4cnc5c(N)ncnc54)[C@H](O)[C@@H]3O)[C@@H](O)[C@H]2O)c1 [NAD^+]
[3]
  Km: 1760 ± 109 µM
[4]
  Km: 280 ± 24.7 µM
[5]
  Km: 1100 ± 160 µM
[6]
  Km: 1180 ± 400 µM
[7]
  Km: 32 ± 3.4 µM
[8]
  Km: 73 ± 6 µM
[9]
  Km: 150 ± 20 µM
[10]
  Km: 150 ± 30 µM
[11]
  Km: 46 ± 2.8 µM
[12]
  kcat of HpIMPDH for the substrate: 5.96 ± 0.53 S^−1
[12]; varying NAD+, IMP 500 µM constant
  Km: 76.4 ± 1.09 µM
